Laboratory results taken from publication PMC9231011, “Irreversible Antagonists for the Adenosine A2B Receptor” (Molecules, 2022).
Substitutions are numbered along the chain they refer to.

Tests used:
hA2B = target: hA2B; set-up: method as in PMID 30835463, PMID 31646479; details: Figure 1; cited from earlier work
hA1 = target: hA1; set-up: method as in PMID 30835463, PMID 31646479; details: Figure 1; cited from earlier work
hA2A = target: hA2A; set-up: method as in PMID 30835463, PMID 31646479; details: Figure 1; cited from earlier work
hA3 = target: hA3; set-up: method as in PMID 30835463, PMID 31646479; details: Figure 1; cited from earlier work
[1] = target: T1, mutant human A2BAR (K269^7.32L) (Homo sapiens, UniProt P29275, K269L); assay: Homologous competition binding of PSB-603 vs [3H]PSB-603 at mutant; details: K269^7.32L mutant
T1 construct: expressed in transfected cells; host or cells: FreeStyle CHO-S cells, pcDNA3.1(+), transient
T1 sequence (P29275 1-332 K269L): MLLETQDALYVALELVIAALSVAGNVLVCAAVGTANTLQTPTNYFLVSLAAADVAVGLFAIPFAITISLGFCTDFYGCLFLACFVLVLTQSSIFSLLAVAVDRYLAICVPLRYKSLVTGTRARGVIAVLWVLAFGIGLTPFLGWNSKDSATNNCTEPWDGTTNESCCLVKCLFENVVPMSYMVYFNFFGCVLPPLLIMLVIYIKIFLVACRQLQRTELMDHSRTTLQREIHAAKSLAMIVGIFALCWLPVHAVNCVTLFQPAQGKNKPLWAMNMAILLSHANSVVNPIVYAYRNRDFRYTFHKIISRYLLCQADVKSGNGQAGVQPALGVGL
Description: The human A2AAR, the mutant human A2BAR (K269^7.32L), and the human A3AR were transiently expressed in FreeStyle^TM CHO-S cells using the transfection reagent polyethylenimine (PEI) at a ratio of 1:3 to DNA according to the manufacturer’s guideline. pcDNA3.1(+) was used as the transfection vector containing the cDNA for either the wt ARs or the K269^7.32L mutant A2BAR that was prepared by site-directed mutagenesis with the following primer: forward […], reverse […]. CHO-S cells were grown in FreeStyle^TM CHO Expression Medium supplemented with 8 mM L-glutamine before use and split to 0.5 mio. cells per mL the day before transfection. Twenty-four hours after transfection, cells were spun down by centrifugation for 15 min at 500× g. […]
Binding experiments were performed using 50 mM Tris buffer (pH 7.4) in a total volume of 400 µL for the A1AR, A2AAR, A3AR, and 1000 µL for the A2BAR. […] Non-specific binding was determined in the presence of 10 µM of 2-chloroadenosine, 10 µM of CGS 15943, 10 µM of 8-cyclopently-1,3-dipropylxanthine or 100 µM of (R)-N^6-phenylisopropyadenosine for A1-, A2A-, A2B- and A3ARs, respectively. […] Subsequently, radioactivity was determined using a liquid scintillation counter (Tricarb 2810TR, Perkin Elmer).

A2BAR = target: T2, A2BAR (Homo sapiens, UniProt P29275); set-up: purchased Perkin Elmer ES-013-M400UA; method as in PMID 19569717; details: wt A2BAR; read-out: KD of [3H]PSB-603; cited from earlier work
T2 sequence (P29275 1-332): T1 sequence (P29275 1-332 K269L) with L269K

SMILES	Ki (hA2B) [nM]	Ki (hA1) [nM]	Ki (hA2A) [nM]	Ki (hA3) [nM]	KD of [3H]PSB-603 [1]	Kd [1] [nM]	Kd (A2BAR) [nM]
CCn1c(=O)c2c(nc(/C=C/c3ccc(OC)c(OC)c3)n2C)n(CC)c1=O [Istradefylline, istradefylline]	> 10000	841	26.4	4470	–	–	–
CCCn1c(=O)[nH]c2nc(-c3ccc(S(=O)(=O)N4CCN(c5ccc(Cl)cc5)CC4)cc3)[nH]c2c1=O [PSB-603]	0.553	> 10000	> 10000	> 10000	did not alter	0.292 ± 0.034	0.553 ± 0.103
CCCn1c(=O)[nH]c2nc(-c3ccc(S(=O)(=O)N4CCN(c5ccc(Br)cc5)CC4)cc3)[nH]c2c1=O [PSB-1901]	0.0835	> 1000	> 1000	> 1000	–	–	–
